Laboratory results published in patent publication US9901592B2 (priority 2008, dated 2018).
Converted amounts (≈) assume the structure as drawn. “And” between values parts separate entries of the source, which are not always exact repeats. Identical values can stand only once. Like-named read-outs stand apart in the source and are kept apart here. Marks after values point to notes of the source that are not given here.

Columns and labels:
U. urealyticum = test: MIC testing in 10B broth (colour change); format: cell-based
streptococci = test: organism not typed; format: cell-based
M. fermentans = format: cell-based; settings: M. fermentans (15 isolates); for MIC50 / MIC90: Mycoplasmopsis fermentans
S. pneumoniae [1] = test: microbe, parasite or virus in culture; format: cell-based; settings: for MIC90: Streptococcus pneumoniae
M. hominis = format: cell-based
M. genitalium = format: cell-based; settings: M. genitalium (5 isolates)
M. pneumoniae = test: microbe, parasite or virus in culture; format: cell-based; settings: for MIC50 / MIC90: Mycoplasmoides pneumoniae
U. parvum = test: MIC testing in 10B broth (colour change); format: cell-based, Ureaplasma parvum; settings: for MIC50 / MIC90: Ureaplasma parvum; for MIC50: read-out: MIC50; for MIC90: read-out: MIC90
pneumococci = test: microbe, parasite or virus in culture; format: cell-based, S. pneumoniae
group A streptococci = test: microbe, parasite or virus in culture; format: cell-based, S. pyogenes
N. meningitidis = test: MIC, CLSI broth microdilution, invasive isolates; format: cell-based; settings: for MIC / MIC50 / MIC90: Neisseria meningitidis, 62 N. meningitidis isolates
Method: Example. […] Colonization of the nasopharynx (NP) by NM can lead to invasive meningococcal disease. Chemoprophylaxis is used to eradicate NP colonization and prevent transmission to nonimmune contacts. […] 62 isolates (91.9% blood culture) of NM were collected from 29 medical centers in North and South America and Europe (1997-2008). […] Serological identification was performed for serogroups (SGs) B, C, Y and W135.

M. catarrhalis = test: microbe, parasite or virus in culture; format: cell-based
Legionella pneumophila = test: microbe, parasite or virus in culture; format: cell-based, L. pneumophila
Mycobacterium bovis BCG = format: cell-based; settings: DETA-NO-induced growth arrest
S. aureus = format: cell-based
S. pneumoniae [2] = format: cell-based
[3] = Ureaplasma urealyticum, U. urealyticum (10 isolates)
[4] = Streptococcus pneumoniae, pneumococci, L4 mutations (27)

Compound: CC(=O)NC[C@H]1CN(c2ccc(N3CCOCC3)c(F)c2)C(=O)O1 [Linezolid, linezolid]
- MIC50 (U. urealyticum; [3]): > 256 µg/mL
- MIC90 (U. urealyticum; [3]): > 256 µg/mL
- MIC50 (streptococci): 1 µg/mL (≈ 2.96 µM)
- MIC90 (streptococci): 2 µg/mL (≈ 5.93 µM)
- MIC 90% (streptococci): 1 µg/mL (≈ 2.96 µM)
- MIC Range (streptococci): 0.25 to 2 µg/mL and 0.5 to 2 µg/mL
- MIC Range (M. fermentans): 0.5 to 4 µg/mL
- MIC50 (M. fermentans): 1 µg/mL (≈ 2.96 µM)
- MIC90 (M. fermentans): 4 µg/mL (≈ 11.9 µM)
- MIC90 (S. pneumoniae [1]): 2 µg/mL (≈ 5.93 µM)
- MIC Range (M. hominis; M. hominis (13 isolates)): 1 to 8 µg/mL
- MIC50 (M. hominis; Metamycoplasma hominis, M. hominis (13 isolates), read-out: MIC50): 2 µg/mL (≈ 5.93 µM)
- MIC90 (M. hominis; Metamycoplasma hominis, M. hominis (13 isolates), read-out: MIC90): 4 µg/mL (≈ 11.9 µM)
- MIC Range (M. genitalium): 4 to 128 µg/mL
- MIC Range (M. pneumoniae): 32 to 128 µg/mL
- MIC50 (M. pneumoniae): 64 µg/mL (≈ 190 µM)
- MIC90 (M. pneumoniae): 128 µg/mL (≈ 379 µM)
- MIC50 (U. parvum; U. parvum (10 isolates)): > 256 µg/mL
- MIC90 (U. parvum; U. parvum (10 isolates)): > 256 µg/mL

Compound: CC1(C)S[C@@H]2[C@H](NC(=O)Cc3ccccc3)C(=O)N2[C@H]1C(=O)O [Penicillin G]
- MIC50 (pneumococci; pneumococci, L4 mutations (27)): 4 µg/mL (≈ 12 µM)
- MIC90 (pneumococci; pneumococci, L4 mutations (27)): 16 µg/mL (≈ 47.8 µM)
- MIC50 (group A streptococci): 0.015 µg/mL (≈ 0.0449 µM)
- MIC90 (group A streptococci): 0.015 µg/mL and 0.03 µg/mL

Compound: CC[C@H]1OC(=O)[C@H](C)[C@@H](O[C@H]2C[C@@](C)(OC)[C@@H](O)[C@H](C)O2)[C@H](C)[C@@H](O[C@@H]2O[C@H](C)C[C@H](N(C)C)[C@H]2O)[C@](C)(O)C[C@@H](C)C(=O)[C@H](C)[C@@H](O)[C@]1(C)O [Erythromycin, erythromycin A]
- MIC90 (S. pneumoniae [1]): > 32 µg/mL
- MIC (N. meningitidis): 0.03 to 0.5 µg/mL (≈ 0.0409 to 0.681 µM)
- MIC50 (N. meningitidis): 0.12 µg/mL (≈ 0.164 µM)
- MIC90 (N. meningitidis): 0.25 µg/mL (≈ 0.341 µM)
- MIC50 (pneumococci; [4]): > 64 µg/mL
- MIC90 (pneumococci; [4]): > 64 µg/mL
- MIC90 (M. catarrhalis; Moraxella catarrhalis): 0.25 µg/mL (≈ 0.341 µM)

Compound: C[C@H]1c2cccc(O)c2C(=O)C2=C(O)[C@]3(O)C(=O)C(C(N)=O)=C(O)[C@@H](N(C)C)[C@@H]3[C@@H](O)[C@@H]21 [Doxycycline, doxycycline]
- MIC Range (U. urealyticum; U. urealyticum (10 isolates)): 0.031 to 32 µg/mL
- MIC (U. urealyticum; Ureaplasma urealyticum, 4 doxycycline-resistant U. urealyticum): 4 to 32 µg/mL (≈ 9 to 72 µM)
- MIC50 (U. urealyticum; [3]): 1 µg/mL (≈ 2.25 µM)
- MIC90 (U. urealyticum; [3]): 16 µg/mL (≈ 36 µM)
- MIC Range (M. fermentans): 0.016 to 0.5 µg/mL
- MIC50 (M. fermentans): 0.125 µg/mL (≈ 0.281 µM)
- MIC90 (M. fermentans): 0.5 µg/mL (≈ 1.13 µM)
- MIC Range (M. hominis; M. hominis (13 isolates)): ≦0.008-0.016 μg/mL
- MIC50 (M. hominis; Metamycoplasma hominis): 0.125 µg/mL (≈ 0.281 µM)
- MIC90 (M. hominis; Metamycoplasma hominis): 8 µg/mL (≈ 18 µM)
- MIC (M. hominis; Metamycoplasma hominis, 2 doxycycline-resistant M. hominis isolates): 8 to 16 µg/mL (≈ 18 to 36 µM)
- MIC Range (M. genitalium): ≦0.008-0.031 μg/mL
- MIC Range (M. pneumoniae): 0.016 to 0.25 µg/mL
- MIC50 (M. pneumoniae): 0.125 µg/mL (≈ 0.281 µM)
- MIC90 (M. pneumoniae): 0.25 µg/mL (≈ 0.563 µM)
- MIC (U. parvum; 7 doxycycline-resistant Ureaplasma parvum): 4 to 16 µg/mL (≈ 9 to 36 µM)
- MIC Range (U. parvum; U. parvum (10 isolates)): 0.031 to 16 µg/mL
- MIC50 (U. parvum; U. parvum (10 isolates)): 8 µg/mL (≈ 18 µM)
- MIC90 (U. parvum; U. parvum (10 isolates)): 16 µg/mL (≈ 36 µM)

Compound: CO[C@H]1/C=C/O[C@@]2(C)Oc3c(C)c(O)c4c(O)c(c(/C=N/N5CCN(C)CC5)c(O)c4c3C2=O)NC(=O)/C(C)=C\C=C\[C@H](C)[C@H](O)[C@@H](C)[C@@H](O)[C@@H](C)[C@H](OC(C)=O)[C@@H]1C [Rifampin]
- MIC Range (Legionella pneumophila; LPN (30)): 0.03-0.06^a μg/ml
- MIC50 (Legionella pneumophila; Legionella pneumophila): 0.03 µg/mL (≈ 0.0365 µM)
- MIC90 (Legionella pneumophila; Legionella pneumophila): 0.03 µg/mL (≈ 0.0365 µM)
- % Res. (N. meningitidis; CLSI (M100-S19, 2009) criteria): 0.0%
- % Susc. (N. meningitidis; CLSI (M100-S19, 2009) criteria): 100.0%
- MIC (N. meningitidis): 0.008 to 0.12 µg/mL (≈ 0.00972 to 0.146 µM)
- MIC50 (N. meningitidis): 0.015 µg/mL (≈ 0.0182 µM)
- MIC90 (N. meningitidis): 0.06 µg/mL (≈ 0.0729 µM)
- reduction of lethality by growth arrest (Mycobacterium bovis BCG): no effect

Compound: CC[C@H]1OC(=O)[C@H](C)[C@@H](OC2CC(C)(OC)C(O)C(C)O2)[C@H](C)[C@@H](OC2OC(C)CC(N(C)C)C2O)[C@@](C)(OC)C[C@@H](C)C(=O)[C@H](C)[C@H]2N(CCCCn3cc(-c4ccccn4)nn3)C(=O)O[C@]12C (stereo partly shown) [Entry 20a]
- MIC (S. aureus): 8 µg/mL (≈ 8.22 µM)
- MIC (S. pneumoniae [2]): ≦0.0625 μg/mL

Compound: quinupristin/dalfopristin [Q/D]
- MIC 50% (streptococci): 0.5 µg/mL
- MIC 90% (streptococci): 0.5 µg/mL and 1 µg/mL
- MIC 90% (S. pneumoniae [1]): 1 µg/mL
- susceptible (S. pneumoniae [1]): 100.0%
- MIC 90% (M. catarrhalis): 0.5 µg/mL

Compound: CN(C)c1ccc(O)c2c1C[C@H]1C[C@H]3[C@H](N(C)C)C(O)=C(C(N)=O)C(=O)[C@@]3(O)C(O)=C1C2=O [Minocycline]
- % Susc. (N. meningitidis; CLSI (M100-S19, 2009) criteria): 100.0%
- MIC (N. meningitidis): 0.008 to 0.25 µg/mL (≈ 0.0175 to 0.546 µM)
- MIC50 (N. meningitidis): 0.12 µg/mL (≈ 0.262 µM)
- MIC90 (N. meningitidis): 0.12 µg/mL (≈ 0.262 µM)

Compound: C[C@H]1COc2c(N3CCN(C)CC3)c(F)cc3c(=O)c(C(=O)O)cn1c23 [Levo]
- MIC50 (pneumococci): 1 µg/mL (≈ 2.77 µM)
- MIC Range (pneumococci): 0.06 to 32 µg/mL
- MIC range (pneumococci): 1 to 32 µg/mL
- MIC50 (group A streptococci): 0.5 µg/mL (≈ 1.38 µM)
- MIC90 (group A streptococci): 0.5 µg/mL and 1 µg/mL
- MIC Range (group A streptococci): 0.5 to 1 µg/mL and 0.5 to 2 µg/mL

Compound: CC[C@H]1OC(=O)[C@@](C)(F)C(=O)[C@H](C)[C@@H](OC2OC(C)CC(N(C)C)C2O)[C@@](C)(OC)C[C@@H](C)C(=O)[C@H](C)[C@H]2N(CCCCn3cc(-c4ccccn4)nn3)C(=O)O[C@]12C (stereo partly shown) [Entry 23a]
- MIC (S. pneumoniae [2]): ≦0.125 μg/mL
